Reference: patent publication US20240390306A1, “Monohydrate Salt of Denatonium Acetate” (priority 2021, published 2024)
Entries after “also recorded” stand apart in the source; their conditions may differ. Read-outs that look alike come from different tables or passages of the source.

What was measured:
[1] = Gravimetric Vapor Sorption (GVS) experiments; assay type: physicochemical
Description: Several Gravimetric Vapor Sorption (GVS) experiments were carried out to investigate the behavior of DAM over a range of different relative humidity levels. […] This experiment used a similar method to GVS 1 without the steps involving 90% RH where the large mass changes were observed and equilibrium was not reached. […] Most of the mass change (1.3-1.4% increase) occurred between 0-10% RH. […] It also loses mass when taken to relative humidity levels of less than 10%.

[2] = Particle size distribution; assay type: physicochemical
Excerpt: The sample was highly crystalline.

[3] = Polymorph screen: solvent addition to ca. 10 mg DAM, initial observation (solubility); assay type: physicochemical
Description: The resultant samples were refrigerated (solutions) or shaken at room temperature (suspensions) for several days. The samples that had initially formed solutions were examined for signs of solid formation after refrigeration. If solid material had formed, it was analyzed by XRPD. If no solid had formed the vials were uncapped and the solutions evaporated, and solid residues analyzed by XRPD. For samples which had initially formed suspensions-if solid was still present it was analyzed by XRPD. The supernatant from the suspension was filtered and then the filtrates were then treated as the solutions above. In some experiments further solid was obtained from evaporation of the filtrates and was analyzed by XRPD where the quantity of material allowed.

[4] = as above; assay type: physicochemical; remark: listed apart in the source
[5] = Storage under stress conditions (temperature / relative humidity); assay type: physicochemical
Excerpt: It also lost mass when taken to relative humidity levels of less than 10%.
It also loses mass when taken to relative humidity levels of less than 10%.
It was then removed from the instrument and a portion immediately analyzed by XRPD.

[6] = assay type: physicochemical; settings: for form by XRPD after storage: closed vial, 6 weeks
Excerpt: It was then removed from the instrument and a portion immediately analyzed by XRPD. […]
A summary of the characterization data for the samples of Pattern 5 can be found in Table 9.

Q: With `CC(=O)[O-].CC[N+](CC)(CC(=O)Nc1c(C)cccc1C)Cc1ccccc1` [DAM, denatonium acetate monohydrate] as the molecule, how does the “sample appearance after GVS” value ([1]; post GVS 1 (40-90-0-90-0-40)) read?
A: sorption cycle. Sample had formed a solid mass with powdery

Q: What about the “sample appearance after GVS” value ([1]; post GVS 2 (40-80-0-80-0-40), acetate monohydrate) of the same molecule?
A: remained as a free-flowing powder; also recorded: Sample remained free flowing solid

Q: What about the “sample appearance after GVS” value ([1]; post GVS 3 (40-0-80-0-80-0-40), acetate monohydrate) of the same molecule?
A: remained as a free-flowing powder; also recorded: Sample remained free flowing solid

Q: What about the “PSD D10” value [2] of the same molecule?
A: 1.62 μm

Q: What about the “PSD D50” value [2] of the same molecule?
A: 23.09 μm

Q: What about the Initial observation ([3]; ca. 10 mg in 1-Pentanol, 50 μL) of the same molecule?
A: Soluble

Q: And the Initial observation ([3]; ca. 10 mg in 2-Butanol, 50 μL)?
A: Soluble

Q: What about the Initial observation ([3]; ca. 10 mg in 2-Ethoxyethanol, 25 μL) of the same molecule?
A: Soluble

Q: What about the Initial observation ([3]; ca. 10 mg in 2-Methoxyethanol, 25 μL) of the same molecule?
A: Soluble

Q: And the Initial observation ([3]; ca. 10 mg in Acetic acid, 25 μL)?
A: Soluble

Q: What about the Initial observation ([3]; ca. 10 mg in Acetone, 1000 μL) of the same molecule?
A: Soluble

Q: And the Initial observation ([3]; ca. 10 mg in Diisopropyl ether, 1000 μL)?
A: Suspension

Q: And the Initial observation ([3]; ca. 10 mg in Dimethylsulfoxide, 100 μL)?
A: Solution

Q: What about the Initial observation ([3]; ca. 10 mg in Ethyl acetate, 1000 μL) of the same molecule?
A: Suspension

Q: And the Initial observation ([3]; ca. 10 mg in Ethyl formate, 50 μL)?
A: Soluble

Q: What about the Initial observation ([3]; ca. 10 mg in MeCN + 5% water, 50 μL) of the same molecule?
A: Solution

Q: And the Initial observation ([3]; ca. 10 mg in MeOH + 5% water, 25 μL)?
A: Solution

Q: And the Initial observation ([3]; ca. 10 mg in Methylethyl ketone, 800 μL)?
A: Soluble

Q: What about the Initial observation ([3]; ca. 10 mg in Tetrahydrofuran, 1000 μL) of the same molecule?
A: Suspension

Q: What about the Initial observation ([4]; ca. 10 mg in 1,2-Dimethoxyethane, 1000 μL) of the same molecule?
A: Suspension

Q: What about the Initial observation ([4]; ca. 10 mg in 1,4-Dioxane, 1000 μL) of the same molecule?
A: Suspension

Q: What about the Initial observation ([4]; ca. 10 mg in 1-Butanol, 50 μL) of the same molecule?
A: Soluble

Q: What about the Initial observation ([4]; ca. 10 mg in 1-Propanol, 25 μL) of the same molecule?
A: Soluble

Q: What about the Initial observation ([4]; ca. 10 mg in 2-Methyl-1-Propanol, 50 μL) of the same molecule?
A: Soluble

Q: And the Initial observation ([4]; ca. 10 mg in 2-Pentanone, 1000 μL)?
A: Suspension

Q: And the Initial observation ([4]; ca. 10 mg in 2-Propanol, 50 μL)?
A: Soluble

Q: And the Initial observation ([4]; ca. 10 mg in 3-Methyl-1-Butanol, 50 μL)?
A: Soluble

Q: What about the Initial observation ([4]; ca. 10 mg in 4-Methyl-2-pentanone, 1000 μL) of the same molecule?
A: Suspension

Q: What about the Initial observation ([4]; ca. 10 mg in Acetone + 5% water, 50 μL) of the same molecule?
A: Solution

Q: What about the Initial observation ([4]; ca. 10 mg in Acetonitrile, 200 μL) of the same molecule?
A: Soluble

Q: And the Initial observation ([4]; ca. 10 mg in Anisole, 750 μL)?
A: Suspension

Q: What about the Initial observation ([4]; ca. 10 mg in Benzonitrile, 500 μL) of the same molecule?
A: Nearly all

Q: What about the Initial observation ([4]; ca. 10 mg in Benzyl alcohol, 25 μL) of the same molecule?
A: Solution

Q: What about the Initial observation ([4]; ca. 10 mg in Butyl acetate, 1000 μL) of the same molecule?
A: Suspension

Q: What about the Initial observation ([4]; ca. 10 mg in Chloroform, 50 μL) of the same molecule?
A: Soluble

Q: And the Initial observation ([4]; ca. 10 mg in Cumene, 1000 μL)?
A: Suspension

Q: What about the Initial observation ([4]; ca. 10 mg in Diethyl ether, 1000 μL) of the same molecule?
A: Suspension

Q: What about the Initial observation ([4]; ca. 10 mg in EtOH + 5% water, 25 μL) of the same molecule?
A: Solution

Q: What about the Initial observation ([4]; ca. 10 mg in Ethanol, 25 μL) of the same molecule?
A: Soluble

Q: What about the Initial observation ([4]; ca. 10 mg in Formic acid, 25 μL) of the same molecule?
A: Soluble

Q: And the Initial observation ([4]; ca. 10 mg in IPA + 5% water, 50 μL)?
A: Solution

Q: And the Initial observation ([4]; ca. 10 mg in Isobutyl acetate, 1000 μL)?
A: Suspension

Q: What about the Initial observation ([4]; ca. 10 mg in Isopropyl acetate, 1000 μL) of the same molecule?
A: Suspension

Q: And the Initial observation ([4]; ca. 10 mg in Methanol, 25 μL)?
A: Soluble

Q: And the Initial observation ([4]; ca. 10 mg in Methyl acetate, 1000 μL)?
A: Suspension

Q: What about the Initial observation ([4]; ca. 10 mg in Methylbutyl ketone, 1000 μL) of the same molecule?
A: Suspension

Q: And the Initial observation ([4]; ca. 10 mg in Pentane, 1000 μL)?
A: Suspension

Q: What about the Initial observation ([4]; ca. 10 mg in Propyl acetate, 1000 μL) of the same molecule?
A: Suspension

Q: And the Initial observation ([4]; ca. 10 mg in Toluene, 1000 μL)?
A: Suspension

Q: And the Initial observation ([4]; ca. 10 mg in Water, 20 μL)?
A: Soluble

Q: What about the Initial observation ([4]; ca. 10 mg in heptane, 1000 μL) of the same molecule?
A: Suspension

Q: What about the Initial observation ([4]; ca. 10 mg in t-Butanol, 100 μL) of the same molecule?
A: Soluble

Q: And the Initial observation ([4]; ca. 10 mg in t-Butylmethyl ether, 1000 μL)?
A: Suspension

Q: And the “form by XRPD after storage” value ([5]; 0% RH (open vial in GVS instrument, 2 days), acetate monohydrate)?
A: converted to Pattern 5; also recorded: consistent with Pattern 5; also recorded: change in form to Pattern 5

Q: What about the “form by XRPD after storage” value ([5]; 25° C., 96% RH, 7 days) of the same molecule?
A: Amorphous

Q: What about the “form by XRPD after storage” value ([5]; 40° C., 75% RH, 7 days) of the same molecule?
A: Shows no change in form by XRPD after 7 days

Q: For `CC(=O)[O-].CC[N+](CC)(CC(=O)Nc1c(C)cccc1C)Cc1ccccc1` [Pattern 5], which form stability [6] is on record?
A: metastable

Q: And the form after standing ([6]; ambient laboratory conditions, within a few hours)?
A: converts to Pattern 1

Q: What about the “form by XRPD after storage” value [6] of the same molecule?
A: converted to Pattern 1

Q: And the “form by XRPD after storage” value ([6]; listed as DAM Pattern 5)?
A: Conversion to Pattern 1 by XRPD

Q: And the “form by XRPD after standing” value ([6]; on XRPD disc at room temperature overnight)?
A: convert to Pattern 1; also recorded: reverted to Pattern 1

Q: What about the “form by XRPD after standing” value ([6]; on XRPD disc at room temperature overnight, listed as DAM Pattern 5) of the same molecule?
A: Conversion to Pattern 1 by XRPD

Q: And the “form by XRPD after standing” value ([6]; on XRPD disc, ambient laboratory conditions, 4 hours, listed as DAM Pattern 5)?
A: Conversion to Pattern 1 by XRPD
